Measurements: article PMC8877905, “Novel Cocrystals of Vonoprazan: Machine Learning-Assisted Discovery” (Pharmaceutics, 2022)
Read-outs that look alike come from different tables or passages of the source. Blank lines part the entries; values can stand above or below the compound they belong to.

How the values were obtained:
[1] = Intrinsic dissolution rate (IDR) in phosphate buffer pH 6.8; type: physicochemical; conditions: for IDR in pH 6.8: phosphate buffer pH 6.8, 37 °C, 50 rpm, 13 mm pellet
Procedure: IDR was investigated using a Distek […] dissolution tester (Distek, North Brunswick, NJ, USA). […] Aliquots of 1.5 mL of the dissolution samples were collected at predetermined time intervals, filtered through 0.45 μm syringe filters, and analyzed for their VPZ concentration by HPLC. The VPZ concentration was measured using an HPLC system (UFLC; Shimadzu) with a diode array detector and Shim-pack GIS-ODS C18 column (4.6 × 250 mm, 5 μm). […] The volume of the injected samples was 10 μL and the VPZ content was assayed spectrophotometrically at a wavelength of 245 nm.

[2] = pKa calculation with ChemAxon calculator and ΔpKa rule; conditions: pKa (base) − pKa (acid); VPZ pKa = 9.4 versus calculated coformer pKa
Source text: The combination with a value 0 ≤ ΔpKa ≤ 3 is much less predictable and falls within a “salt-cocrystal continuum” [38]. We applied this approach to the coformers selected based on virtual cocrystal screening to assess whether the combination would form a cocrystal or salt (Table 1).

[3] = Equilibrium solubility in pH 1.2 and pH 6.8 solutions, 37 °C, 24 h, HPLC; type: physicochemical; conditions: for solubility thermodynamic at 24 h: 37 °C, VPZ concentration by HPLC
Procedure: Excess amounts (~500 mg) of powder samples were added to 10 mL of pH 1.2 solution and 30 mL of pH 6.8 solution. […] After 24 h, aliquots of 2.5 mL were withdrawn from the suspension using a 0.45 μm nylon syringe filter and diluted immediately, followed by analysis of the VPZ concentration by HPLC.
The VPZ concentration was measured using an HPLC system (UFLC; Shimadzu) with a diode array detector and Shim-pack GIS-ODS C18 column (4.6 × 250 mm, 5 μm). HPLC analysis was conducted at a column oven temperature of 40 °C with a flow rate of 1 mL/min, and the mobile phase was a mixture of 20 mM ammonium formate in water (pH 3.05) and HPLC-grade MeOH with the addition of 10 mM triethylamine (TEA) (80% : 20%, v/v). The volume of the injected samples was 10 μL and the VPZ content was assayed spectrophotometrically at a wavelength of 245 nm.

[4] = Stability in aqueous solution: PXRD of solids remaining after 24 h slurry; type: physicochemical; conditions: pH 6.8 solution, slurry for 24 h
Procedure: The solubility and dissolution behavior of drugs in aqueous solvent are important physicochemical properties for good oral bioavailability. VPZ has pH-dependent solubility, which increases with decreasing pH. […] The aqueous solubility for cocrystals and salts of VPZ was measured in pH 1.2 and 6.8 buffer solutions at 37 °C. VPZ concentrations were determined in aliquots retrieved from the suspensions after 24 h by HPLC. One of the major challenges in investigations of solubility in multicomponent solid forms is the change in the solution composition due to precipitation of the components dissociated over the test period. In this study, the stability of the cocrystals in aqueous solution was checked by PXRD analysis of the solids remaining after solubility experiments. At pH 1.2, however, the amount recovered from the suspensions was too low to confirm their stability. […] Under both conditions, the solubility order was VPZ–RES > VPZ–CAT > VPZ–GAL.

[5] = Accelerated stability testing in the solid state; type: physicochemical
[6] = parameters: method as in PMID 28578848; conditions: cited from earlier work

Compound: Vonoprazan–pyrogallol [VPZ-GAL]
IDR in pH 6.8 [1]: 0.69 mg/cm^2∙min

Compound: O=C(O)c1ccc[nH]1 [Pyrrole-2-carboxylic acid]
ΔpKa [2]: 5.78

Compound: O=C1NS(=O)(=O)c2ccccc21 [saccharin]
ΔpKa [2]: 7.46

Compound: NC(N)=O [Urea]
ΔpKa [2]: −6.9

Compound: O=C1CC[C@@H](C(=O)O)N1 [Pyroglutamic acid]
ΔpKa [2]: 5.79

Compound: O=C(O)CCC(=O)O [Succinic acid]
ΔpKa [2]: 5.54

Compound: NC(=O)C(=O)O [Oxamic acid]
ΔpKa [2]: 6.92

Compound: Oc1ccccc1O [Pyrocatechol]
ΔpKa [2]: −0.24

The next lines start with results.

ΔpKa [2]: −4.25
Compound: NC(=O)CO [Glycolamide]

ΔpKa [2]: −0.58
Compound: Oc1ccc(O)cc1 [Hydroquinone]

ΔpKa [2]: −4.31
Compound: NC(=O)c1ccncc1 [Isonicotinamide]

ΔpKa [2]: 5.02
Compound: O=C(O)c1ccc(O)cc1 [4-hydroxybenzoic acid]

ΔpKa [2]: −0.7
Compound: Cc1cc(O)ccc1O [Methyl-hydroquinone]

ΔpKa [2]: −0.17
Compound: Oc1cccc(O)c1 [Resorcinol]

ΔpKa [2]: 0.3
Compound: Oc1cccc(O)c1O [Pyrogallol]

ΔpKa [2]: −3.99
Compound: NC(=O)c1cccnc1 [Nicotinamide]

solubility at 24 h ([3]; Figure 7a, pH 1.2 buffer, read-out: Solubility in pH 1.2 buffer, Concentration): 27600 µg/mL
solubility at 24 h ([3]; Figure 7b, pH 6.8 buffer, read-out: Solubility in pH 6.8 buffer, Concentration): 3400 µg/mL
solubility thermodynamic at 24 h ([3]; pH 1.2 solution, read-out: Equilibrium Solubility after 24 h in pH 1.2): 27710 ± 210 µg/mL
solubility thermodynamic at 24 h ([3]; pH 6.8 solution, read-out: Equilibrium Solubility after 24 h in pH 6.8): 3400 ± 450 µg/mL
time to reach peak concentration in IDR plot ([1]; pH 6.8 buffer): ≤ 60 min
IDR in pH 6.8 [1]: 1.35 mg/cm^2∙min
stability in the solid state [5]: remained stable
Compound: CNCc1cc(-c2ccccc2F)n(S(=O)(=O)c2cccnc2)c1.O=C(O)/C=C/C(=O)O [VPZ-FUM, 1-[5-(2-Fluorophenyl)-1-(pyridin-3-ylsulfonyl)-1H-pyrrol-3-yl]-N-methylmethanamine monofumarate]
stability in aqueous solution (PXRD of undissolved residue) [4]: different from those of the starting material
reported solubility in water [6]: < 1000 µg/mL

ΔpKa [2]: −5.16
Compound: NC(=O)c1ccccc1 [Benzamide]
